Measured values published in ChEMBL document CHEMBL3045228, “QSAR study of a series of acyl coenzyme A (CoA): cholesterol acyltransferase inhibitors using genetic function approximation” (Med Chem Res, 2011).

Assay: Inhibition of Acyl-coenzyme A:cholesterol acyltransferase (unknown origin) assessed as intracellular cholesterol esterification by cell based assay
Settings: Homo sapiens

Compound CCCCCc1ccc(CN(C(Nc2ccc(OC)cc2OC)=C2C(=O)OC(C)(C)OC2=O)C(C)CCCCC)cc1 (centres undefined) has an IC50 (read-out: IC50) of 360 nM and an IC50 (read-out: pIC50 (converted)) of 360 nM.
In the case of CCCCCC(C)N(Cc1ccc(OCCC(C)C)cc1)C(Nc1ccc(N(C)C)cc1)=C1C(=O)OC(C)(C)OC1=O (centres undefined), the IC50 (read-out: IC50) is reported as 210 nM and the IC50 (read-out: pIC50 (converted)) is reported as 210 nM.
Compound CCCCCC(C)N(Cc1ccc(CC(C)(C)C)cc1)C(Nc1c(C)cc(N(C)C)cc1C)=C1C(=O)OC(C)(C)OC1=O (centres undefined) has an IC50 (read-out: IC50) of 380 nM and an IC50 (read-out: pIC50 (converted)) of 380 nM.
CCCCCC(C)N(Cc1ccc(OCC(C)C)cc1)C(Nc1ccc(OC)cc1OC)=C1C(=O)OC(C)(C)OC1=O (centres undefined) showed an IC50 (read-out: IC50) of 550 nM and an IC50 (read-out: pIC50 (converted)) of 550 nM.
CC(C)CCc1ccc(CN(C(Nc2ccc(N(C)C)cc2)=C2C(=O)OC(C)(C)OC2=O)C(CC(C)C)CC(C)C)cc1 showed an IC50 (read-out: IC50) of 1300 nM and an IC50 (read-out: pIC50 (converted)) of 1300 nM.
CCCCC(CC)N(Cc1ccc(CC(C)(C)C)cc1)C(Nc1ccc(OC)cc1OC)=C1C(=O)OC(C)(C)OC1=O (centres undefined) gave an IC50 (read-out: IC50) of 540 nM and an IC50 (read-out: pIC50 (converted)) of 540 nM.
For CCCCCc1ccc(CCCCCCCCNC(Nc2ccc(OC)cc2OC)=C2C(=O)OC(C)(C)OC2=O)cc1, the IC50 (read-out: IC50) was 840 nM and the IC50 (read-out: pIC50 (converted)) was 839 nM.
COc1ccc(NC(=C2C(=O)OC(C)(C)OC2=O)N(Cc2ccc(CC(C)C)cc2C)C(CO[SiH](C)C)CC(C)C)c(OC)c1 (centres undefined) gave an IC50 (read-out: IC50) of 530 nM and an IC50 (read-out: pIC50 (converted)) of 530 nM.
COc1ccc(NC(NCCCCCCCCCCCc2ccc(C(C)(C)C)cc2)=C2C(=O)OC(C)(C)OC2=O)c(OC)c1 showed an IC50 (read-out: IC50) of 2300 nM and an IC50 (read-out: pIC50 (converted)) of 2300 nM.
Work on CCCCC(CC)N(Cc1ccc(CC(C)(C)C)cc1)C(Nc1ccc(N(C)C)cc1)=C1C(=O)OC(C)(C)OC1=O (centres undefined) yielded an IC50 (read-out: IC50) of 190 nM and an IC50 (read-out: pIC50 (converted)) of 640 nM.
For COc1ccc(NC(NCc2ccc(C(C)(C)C)cc2)=C2C(=O)OC(C)(C)OC2=O)c(OC)c1, the IC50 (read-out: IC50) was 260 nM and the IC50 (read-out: pIC50 (converted)) was 260 nM.
COc1ccc(NC(=C2C(=O)OC(C)(C)OC2=O)N(Cc2ccc(C(C)(C)C)cc2)C(C)CCCC(C)C)c(OC)c1 (centres undefined) showed an IC50 (read-out: IC50) of 230 nM and an IC50 (read-out: pIC50 (converted)) of 230 nM.
In the case of CC(C)CCOc1ccc(CCCCCCCCNC(Nc2ccc(N(C)C)cc2)=C2C(=O)OC(C)(C)OC2=O)cc1, the IC50 (read-out: IC50) is reported as 370 nM and the IC50 (read-out: pIC50 (converted)) is reported as 370 nM.
In the case of CCCCCC(C)N(Cc1ccc(CC(C)(C)C)cc1)C(Nc1ccc(N(C)C)cc1C)=C1C(=O)OC(C)(C)OC1=O (centres undefined), the IC50 (read-out: IC50) is reported as 260 nM and the IC50 (read-out: pIC50 (converted)) is reported as 260 nM.
CCCCCC(C)N(Cc1ccc(OCC(C)C)cc1)C(Nc1ccc(N(C)C)cc1)=C1C(=O)OC(C)(C)OC1=O (centres undefined) gave an IC50 (read-out: IC50) of 90 nM and an IC50 (read-out: pIC50 (converted)) of 89.9 nM.
Compound CCCCCC(C)N(Cc1ccc(C(C)(C)C)cc1)C(Nc1ccc(OCCCC)cc1)=C1C(=O)OC(C)(C)OC1=O (centres undefined) has an IC50 (read-out: IC50) of 230 nM and an IC50 (read-out: pIC50 (converted)) of 230 nM.
In the case of CCCCCC(C)N(Cc1ccc(CCC(C)C)cc1)C(Nc1ccc(N(C)C)cc1C)=C1C(=O)OC(C)(C)OC1=O (centres undefined), the IC50 (read-out: IC50) is reported as 160 nM and the IC50 (read-out: pIC50 (converted)) is reported as 160 nM.
Compound CCCCCC(C)N(Cc1ccc(C(C)(C)C)cc1)C(Nc1ccc(N(C)C)cc1)=C1C(=O)OC(C)(C)OC1=O (centres undefined) has an IC50 (read-out: IC50) of 250 nM and an IC50 (read-out: pIC50 (converted)) of 250 nM.
With CCCCCC(C)N(Cc1ccc(C(C)(C)C)cc1)C(Nc1cc(OC)c(OC)c(OC)c1)=C1C(=O)OC(C)(C)OC1=O (centres undefined) the IC50 (read-out: IC50) was 770 nM and the IC50 (read-out: pIC50 (converted)) was 769 nM.
In the case of COc1ccc(NC(=C2C(=O)OC(C)(C)OC2=O)N(Cc2ccc(CCC(C)C)cc2)C(CC(C)C)CC(C)C)c(OC)c1, the IC50 (read-out: IC50) is reported as 1300 nM and the IC50 (read-out: pIC50 (converted)) is reported as 1300 nM.
Compound COc1ccc(NC(NCCc2ccccc2)=C2C(=O)OC(C)(C)OC2=O)c(OC)c1 has an IC50 (read-out: IC50) of 2800 nM and an IC50 (read-out: pIC50 (converted)) of 2800 nM.
For CCCCCC(C)N(Cc1ccc(OC(C)CCC)cc1)C(Nc1ccc(OC)cc1OC)=C1C(=O)OC(C)(C)OC1=O (centres undefined), the IC50 (read-out: IC50) was 540 nM and the IC50 (read-out: pIC50 (converted)) was 540 nM.
COc1cc(OC)c(NC(NCCCCCCCCc2ccc(CC(C)(C)C)cc2)=C2C(=O)OC(C)(C)OC2=O)c(OC)c1 gave an IC50 (read-out: IC50) of 700 nM and an IC50 (read-out: pIC50 (converted)) of 700 nM.
In the case of CC1(C)OC(=O)C(=C(NCCCCCCCCc2ccc(C(C)(C)C)cc2)Nc2ccc(Oc3ccccc3)cc2)C(=O)O1, the IC50 (read-out: IC50) is reported as 920 nM and the IC50 (read-out: pIC50 (converted)) is reported as 920 nM.
With CCCCCCOc1ccc(NC(=C2C(=O)OC(C)(C)OC2=O)N(Cc2ccc(CC(C)C)cc2)C(C)CCCCC)cc1 (centres undefined) the IC50 (read-out: IC50) was 410 nM and the IC50 (read-out: pIC50 (converted)) was 410 nM.
COc1ccc(NC(NCCCCCCCCc2ccc(OCCC(C)C)cc2)=C2C(=O)OC(C)(C)OC2=O)c(OC)c1 showed an IC50 (read-out: IC50) of 1500 nM and an IC50 (read-out: pIC50 (converted)) of 1500 nM.
CCCCCC(C)N(Cc1ccc(CC(C)(C)C)cc1)C(Nc1ccc(C)cc1C)=C1C(=O)OC(C)(C)OC1=O (centres undefined) gave an IC50 (read-out: IC50) of 490 nM and an IC50 (read-out: pIC50 (converted)) of 490 nM.
In the case of CCCCCc1ccc(CN(C(Nc2ccc(N(C)C)cc2)=C2C(=O)OC(C)(C)OC2=O)C(C)CCCCC)cc1 (centres undefined), the IC50 (read-out: IC50) is reported as 260 nM and the IC50 (read-out: pIC50 (converted)) is reported as 260 nM.
COc1ccc(NC(NCCCCCCCCc2ccc(CC(C)C)cc2)=C2C(=O)OC(C)(C)OC2=O)c(OC)c1 gave an IC50 (read-out: IC50) of 910 nM and an IC50 (read-out: pIC50 (converted)) of 910 nM.
COc1cc(NC(NCCCCCCCCc2ccc(C(C)(C)C)cc2)=C2C(=O)OC(C)(C)OC2=O)cc(OC)c1OC showed an IC50 (read-out: IC50) of 2800 nM and an IC50 (read-out: pIC50 (converted)) of 2800 nM.
In the case of CCCCCC(C)N(Cc1ccc(CC(C)(C)C)cc1)C(Nc1ccc(OC)cc1OC)=C1C(=O)OC(C)(C)OC1=O (centres undefined), the IC50 (read-out: IC50) is reported as 830 nM and the IC50 (read-out: pIC50 (converted)) is reported as 830 nM.
With CC(C)Cc1ccc(CN(C(Nc2ccc(N(C)C)cc2)=C2C(=O)OC(C)(C)OC2=O)C(C)CCCC(C)(C)O)cc1 (centres undefined) the IC50 (read-out: IC50) was 5200 nM and the IC50 (read-out: pIC50 (converted)) was 5200 nM.
COc1cc(NC(NCCCCCCCCc2ccc(OCCC(C)C)cc2)=C2C(=O)OC(C)(C)OC2=O)cc(OC)c1OC gave an IC50 (read-out: IC50) of 3500 nM and an IC50 (read-out: pIC50 (converted)) of 3500 nM.
CCCCOc1ccc(NC(=C2C(=O)OC(C)(C)OC2=O)N(Cc2ccc(C(C)(C)C)cc2)C(C)CCCC(C)C)cc1 (centres undefined) showed an IC50 (read-out: IC50) of 690 nM and an IC50 (read-out: pIC50 (converted)) of 690 nM.
COc1ccc(NC(=C2C(=O)OC(C)(C)OC2=O)N(Cc2ccc(CC(C)C)cc2)C(C)CCCC(C)C)c(OC)c1 (centres undefined) showed an IC50 (read-out: IC50) of 370 nM and an IC50 (read-out: pIC50 (converted)) of 370 nM.
For CC(C)(C)Cc1ccc(CCCCCCCNC(Nc2cc(C(C)(C)C)c(O)c(C(C)(C)C)c2)=C2C(=O)OC(C)(C)OC2=O)cc1, the IC50 (read-out: IC50) was 240 nM and the IC50 (read-out: pIC50 (converted)) was 240 nM.
For CCCCCC(C)N(Cc1ccc(CC(C)C)cc1)C(Nc1ccc(N(C)C)cc1C)=C1C(=O)OC(C)(C)OC1=O (centres undefined), the IC50 (read-out: IC50) was 350 nM and the IC50 (read-out: pIC50 (converted)) was 350 nM.
Compound CCCCCCOc1ccc(NC(NCCCCCCCCc2ccc(C(C)(C)C)cc2)=C2C(=O)OC(C)(C)OC2=O)cc1 has an IC50 (read-out: IC50) of 500 nM and an IC50 (read-out: pIC50 (converted)) of 500 nM.
For CCCCCCC(CCCCCC)N(Cc1ccc(CC(C)C)cc1)C(Nc1ccc(N(C)C)cc1)=C1C(=O)OC(C)(C)OC1=O, the IC50 (read-out: IC50) was 44 nM and the IC50 (read-out: pIC50 (converted)) was 44 nM.
Compound COc1ccc(NC(=C2C(=O)OC(C)(C)OC2=O)N(Cc2ccc(CC(C)(C)C)cc2)CC2CCCC2c2ccccc2)c(OC)c1 (centres undefined) has an IC50 (read-out: IC50) of 290 nM and an IC50 (read-out: pIC50 (converted)) of 290 nM.
Compound COc1ccc(NC(NCCCCCCCCc2ccc(C(C)(C)C)cc2)=C2C(=O)OC(C)(C)OC2=O)c(OC)c1 has an IC50 (read-out: IC50) of 900 nM and an IC50 (read-out: pIC50 (converted)) of 899 nM.
Compound Cc1cc(N(C)C)cc(C)c1NC(NCCCCCCCCc1ccc(C(C)(C)C)cc1)=C1C(=O)OC(C)(C)OC1=O has an IC50 (read-out: IC50) of 980 nM and an IC50 (read-out: pIC50 (converted)) of 979 nM.
In the case of CN(C)c1ccc(NC(NCCCCCCCCc2ccc(C(C)(C)C)cc2)=C2C(=O)OC(C)(C)OC2=O)cc1, the IC50 (read-out: IC50) is reported as 1100 nM and the IC50 (read-out: pIC50 (converted)) is reported as 1100 nM.
With CCCCCc1ccc(CN(C(Nc2ccc(N(C)C)cc2C)=C2C(=O)OC(C)(C)OC2=O)C(C)CCCCC)cc1 (centres undefined) the IC50 (read-out: IC50) was 680 nM and the IC50 (read-out: pIC50 (converted)) was 242 nM.
Compound CCCCCC(C)N(Cc1ccc(CC(C)C)cc1)C(Nc1ccc(OC)cc1OC)=C1C(=O)OC(C)(C)OC1=O (centres undefined) has an IC50 (read-out: IC50) of 240 nM and an IC50 (read-out: pIC50 (converted)) of 240 nM.
With COc1ccc(NC(NCCCCCCCCc2ccc(CCC(C)C)cc2)=C2C(=O)OC(C)(C)OC2=O)c(OC)c1 the IC50 (read-out: IC50) was 3000 nM and the IC50 (read-out: pIC50 (converted)) was 3000 nM.
In the case of CC(C)CCCC(C)N(Cc1ccc(CC(C)C)cc1)C(Nc1ccc(N(C)C)cc1)=C1C(=O)OC(C)(C)OC1=O (centres undefined), the IC50 (read-out: IC50) is reported as 270 nM and the IC50 (read-out: pIC50 (converted)) is reported as 270 nM.
